Laboratory results reported in patent US8895585B2, “Nicotinamide derivative or salt thereof” (FUJIFILM Corporation, priority 2010, dated 2014).

target: T1, glutathione S-transferase (GST)-fused full-length human Syk protein (Homo sapiens, UniProt P43405); experiment: Syk enzyme assay; type: biochemical; conditions: Syk enzyme assay, Test Example 1; read-out: IC50 of Syk-inhibitory activity
T1 construct: (GST)-fused full-length human Syk protein; GST (glutathione S-transferase); purchased Carna Biosciences
Outline: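 IC50 values come from a time-resolved FRET readout (615 and 665 nm) of substrate phosphorylation, measured after an EDTA stop and 1 h antibody binding. The kinase reaction ran 40 min at room temperature with 27 μM ATP and 0.4 μM biotin-peptide, following a 15 min compound preincubation with baculovirus-made GST-full-length human Syk.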

| IC50 | Compound |
| --- | --- |
| < 10 nM | NC(=O)c1cc(F)c(NC2CCCCC2N)nc1Nc1cnc2oc3ccccc3c2c1 (stereo not shown) [Example 002-195] |
| 100 to 1000 nM | Cn1cc(Nc2nc(NC3CCCCC3N)c(F)cc2C(N)=O)ccc1=O (stereo not shown) [Example 002-202] |
| 10 to 50 nM | COc1ncc(Nc2nc(NC3CCCCC3N)c(F)cc2C(N)=O)cc1Cl (stereo not shown) [Example 002-203] |
| 100 to 1000 nM | NC(=O)c1cc(F)c(N[C@@H]2CCCC[C@@H]2N)nc1Nc1cncnc1 [Example 004-001] |
| < 10 nM | NC(=O)c1cc(F)c(N[C@@H]2CCCC[C@@H]2N)nc1Nc1cccc2c1CNC2=O [Example 004-009] |
| 10 to 50 nM | CNC(=O)c1cncc(Nc2nc(N[C@@H]3CCCC[C@@H]3N)c(F)cc2C(N)=O)c1 [Example 004-010] |
| 100 to 1000 nM | CN(C)C(=O)c1cncc(Nc2nc(N[C@@H]3CCCC[C@@H]3N)c(F)cc2C(N)=O)c1 [Example 004-015] |
| 100 to 1000 nM | NC(=O)c1cc(F)c(N[C@@H]2CCCC[C@@H]2N)nc1Nc1cnc2nccnc2c1 [Example 004-021] |
| 50 to 100 nM | CC(=O)N(C)c1cccc2cc(Nc3nc(N[C@@H]4CCCC[C@@H]4N)c(F)cc3C(N)=O)cnc12 [Example 004-034] |
| < 10 nM | NC(=O)c1cc(F)c(N[C@@H]2CCCC[C@@H]2N)nc1Nc1ccnc2c1ccn2-c1ccccc1 [Example 004-038] |
| 50 to 100 nM | NC(=O)c1cc(F)c(N[C@@H]2CCCC[C@@H]2N)nc1Nc1cncc(Oc2ccccc2)c1 [Example 004-041] |
| 10 to 50 nM | NC(=O)c1cc(F)c(N[C@H](Cc2ccccc2)C(N)=O)nc1Nc1ccnc2c1ccn2CCN1CCOCC1 [Example 004-045] |
| 10 to 50 nM | CC(=O)Nc1cccc2cc(Nc3nc(N[C@H](Cc4ccccc4)C(N)=O)c(F)cc3C(N)=O)cnc12 [Example 004-047] |
| < 10 nM | NC(=O)c1cc(F)c(N[C@H](Cc2ccccc2)C(N)=O)nc1Nc1ccnc2[nH]ccc12 [Example 004-063] |
| < 10 nM | Cn1ccc2c(Nc3nc(N[C@@H]4CCCC[C@@H]4N)c(F)cc3C(N)=O)cc(C(F)(F)F)cc21 [Example 004-086] |
| < 10 nM | NC(=O)c1cc(F)c(N[C@@H]2CCCC[C@@H]2N)nc1Nc1cc(C(F)(F)F)cc2c1ccn2CCN1CCOCC1 [Example 004-087] |
| < 10 nM | COCCn1ccc2c(Nc3nc(N[C@@H]4CCCC[C@@H]4N)c(F)cc3C(N)=O)cc(C(F)(F)F)cc21 [Example 004-088] |
| 10 to 50 nM | NC(=O)c1cc(F)c(N[C@@H]2CCCC[C@@H]2N)nc1Nc1cncc(N2CCCC2=O)c1 [Example 004-107] |
| < 10 nM | CCOC(=O)c1c(F)cc2c(Nc3nc(N[C@@H]4CCCC[C@@H]4N)c(F)cc3C(N)=O)cccn12 [Example 004-115] |
| < 10 nM | COCCNc1cccc2cc(Nc3nc(N[C@@H]4CCCC[C@@H]4N)c(F)cc3C(N)=O)cnc12 [Example 004-122] |
| 10 to 50 nM | CN(C)c1ccc2cc(Nc3nc(N[C@@H]4CCCC[C@@H]4N)c(F)cc3C(N)=O)cnc2c1 [Example 004-126] |
| 10 to 50 nM | CCOCCOCCNc1cccc2cc(Nc3nc(N[C@@H]4CCCC[C@@H]4N)c(F)cc3C(N)=O)cnc12 [Example 004-133] |
| 10 to 50 nM | C[C@@H]1CN(c2cncc(Nc3nc(N[C@@H]4CCCC[C@@H]4N)c(F)cc3C(N)=O)c2)C[C@H](C)O1 [Example 004-180] |

| IC50 | Compound |
| --- | --- |
| 10 to 50 nM | NC(=O)c1cc(F)c(N[C@@H]2CCCC[C@@H]2N)nc1Nc1cncc(-c2ccccc2OCC2CC2)c1 [Example 004-184] |
| 10 to 50 nM | NC(=O)c1cc(F)c(N[C@@H]2CCCC[C@@H]2N)nc1Nc1ccn2cnnc2c1 [Example 004-212] |
| < 10 nM | CC(=O)Nc1cccc(-c2cncc(Nc3nc(N[C@@H]4CCCC[C@@H]4N)c(F)cc3C(N)=O)c2)c1 [Example 004-223] |
| < 10 nM | CC(=O)Nc1ccc(-c2cncc(Nc3nc(N[C@@H]4CCCC[C@@H]4N)c(F)cc3C(N)=O)c2)cc1 [Example 004-224] |
| 100 to 1000 nM | COc1cc(Nc2nc(N[C@@H]3CCCC[C@@H]3N)c(F)cc2C(N)=O)cnc1N1CCOCC1 [Example 004-233, 6-(((1R,2S)-2-aminocyclohexyl)amino)-5-fluoro-2-((5-methoxy-6-morpholinopyridin-3-yl)amino)nicotinamide] |
| 10 to 50 nM | NC(=O)c1cc(F)c(N[C@@H]2CCCC[C@@H]2N)nc1Nc1cnc(N2CCOCC2)c2[nH]ccc12 [Example 004-234, 6-(((1R,2S)-2-aminocyclohexyl)amino)-5-fluoro-2-((7-morpholino-1H-pyrrolo[2,3-c]pyridin-4-yl)amino)nicotinamide] |
| 100 to 1000 nM | NCCNc1nc(Nc2cccc(Cl)c2)c(C(N)=O)cc1F [Example 006-006, 6-((2-aminoethyl)amino)-2-(3-chlorophenylamino)-5-fluoronico-tinamide] |
| 50 to 100 nM | NCCNc1nc(Nc2cc(Cl)cc(Cl)c2)c(C(N)=O)cc1F [Example 006-007, 6-((2-aminoethyl)amino)-2-((3,5-dichlorophenyl)amino)-5-fluoro-nicotinamide] |
| 50 to 100 nM | CCNc1nc(Nc2ccc3cn[nH]c3c2)c(C(N)=O)cc1F [Example 006-018, 6-(ethylamino)-5-fluoro-2-((1H-indazol-6-yl)amino)nicotinamide] |
| 100 to 1000 nM | CCNc1nc(Nc2cnc3ccccc3c2)c(C(N)=O)cc1F [Example 006-020, 6-(ethylamino)-5-fluoro-2-(quinolin-3-ylamino)nicotinamide] |
| 100 to 1000 nM | CCNc1nc(Nc2ccc3ncsc3c2)c(C(N)=O)cc1F [Example 006-042, 2-((benzo[d]thiazol-6-yl)amino)-6-(ethylamino)-5-fluoronicotinamide] |
| 10 to 50 nM | NCCNc1nc(Nc2cncc(-c3ccccc3)c2)c(C(N)=O)cc1F [Example 006-089, 6-((2-aminoethyl)amino)-5-fluoro-2-((5-phenylpyridin-3-yl)amino)nicotinamide] |
| 100 to 1000 nM | Cn1cccc1-c1cncc(Nc2nc(NCCN)c(F)cc2C(N)=O)c1 [Example 006-090, 6-((2-aminoethyl)amino)-5-fluoro-2-((5-(1-methyl-1H-pyrrol-2-yl)pyridin-3-yl)amino)nicotinamide] |
| 100 to 1000 nM | Cc1ccc(Nc2nc(NC[C@H](C)N)c(F)cc2C(N)=O)cn1 [Example 006-095, (S)-6-((2-aminopropyl)amino)-5-fluoro-2-((6-methylpyridin-3-yl)amino)nicotinamide] |
| 100 to 1000 nM | COc1cc(Nc2nc(N[C@H]3CCCC[C@H]3N)c(F)cc2C(N)=O)cc(OC)n1 [Example 006-115, 6-((1S,2R)-2-aminocyclohexylamino)-2-((2,6-dimethoxypyridin-4-yl)amino)-5-fluoronicotinamide] |
| 100 to 1000 nM | Cc1cncc(Nc2nc(NC[C@@H](N)c3ccccc3)c(F)cc2C(N)=O)c1 [Example 006-118, (S)-6-((2-amino-2-phenylethyl)amino)-5-fluoro-2-((5-methylpyridin-3-yl)amino)nicotinamide] |
| 10 to 50 nM | NC(=O)c1cc(F)c(NC[C@@H](N)c2ccccc2)nc1Nc1cccc(-n2nccn2)c1 [Example 006-120, (S)-2-((3-(2H-1,2,3-triazol-2-yl)phenyl)amino)-6-((2-amino-2-phenylethyl)amino)-5-fluoronicotinamide] |
| 10 to 50 nM | NC[C@H](Nc1nc(Nc2ccc3cccnc3c2)c(C(N)=O)cc1F)c1ccccc1 [Example 006-134, (R)-6-((2-amino-1-phenylethyl)amino)-5-fluoro-2-(quinolin-7-ylamino)nicotinamide] |
| 10 to 50 nM | COc1cc(Nc2nc(N[C@H](c3ccccc3)[C@@H](N)c3ccccc3)c(F)cc2C(N)=O)ccn1 [Example 006-139] |
| 10 to 50 nM | CC[C@H](N)C(C)Nc1nc(Nc2ccc3ncccc3c2)c(C(N)=O)cc1F (stereo partly shown) [Example 006-149] |
| 10 to 50 nM | CCC(Nc1nc(Nc2ccc3ncccc3c2)c(C(N)=O)cc1F)[C@@H](N)CC (stereo partly drawn) [Example 006-150, 6-(((4S)-4-aminohexan-3-yl)amino)-5-fluoro-2-(quinolin-6-ylamino)nicotinamide] |
| 10 to 50 nM | CC[C@H](N)C(CC(C)C)Nc1nc(Nc2ccc3ncccc3c2)c(C(N)=O)cc1F (stereo partly drawn) [Example 006-151, 6-(((5S)-5-amino-2-methylheptan-4-yl)amino)-5-fluoro-2-(quinolin-6-ylamino)nicotinamide] |

same assay, conditions: read-out: Syk-inhibitory activity (IC50)

| IC50 | Compound |
| --- | --- |
| ≤ 1000 nM | Cc1cccc(Nc2nc(NCCN)c(F)cc2C(N)=O)c1 [Example 6-2, 6-((2-aminoethyl)amino)-5-fluoro-2-(3-methylphenylamino)nico-tinamide] |
| ≤ 1000 nM | CCNc1nc(Nc2ccc3cn[nH]c3c2)c(C(N)=O)cc1F [Example 6-18, 6-(ethylamino)-5-fluoro-2-((1H-indazol-6-yl)amino)nicotinamide] |
| ≤ 1000 nM | CCNc1nc(Nc2cnc3ccccc3c2)c(C(N)=O)cc1F [Example 6-20, 6-(ethylamino)-5-fluoro-2-(quinolin-3-ylamino)nicotinamide] |
| ≤ 1000 nM | Cc1nc2ccc(Nc3nc(NCCN)c(F)cc3C(N)=O)cc2s1 [Example 6-21, 6-((2-aminoethyl)amino)-5-fluoro-2-((2-methylbenzo[d]thiazol-6-yl)amino)nicotinamide] |
| ≤ 1000 nM | Cc1nc2ccc(Nc3nc(NCCN)c(F)cc3C(N)=O)cc2o1 [Example 6-23, 6-((2-aminoethyl)amino)-5-fluoro-2-((2-methylbenzo[d]oxazol-6-yl)amino)nicotinamide] |
| ≤ 1000 nM | CC(=O)Nc1cccc(Nc2nc(NCCN)c(F)cc2C(N)=O)c1 [Example 6-24, 2-((3-acetylaminophenyl)amino)-6-((2-aminoethyl)amino)-5-fluoronicotinamide] |
| ≤ 1000 nM | Cn1ncc2ccc(Nc3nc(NCCN)c(F)cc3C(N)=O)cc21 [Example 6-27, 6-((2-aminoethyl)amino)-5-fluoro-2-((1-methyl-1H-indazol-6-yl)amino)nicotinamide] |
